Converted amounts (≈) assume the structure as drawn.
Assays:
C. albicans (Has. A) [1] = test: Sensitivity of fungi to taurolidine, solid medium; type: cell-based; conditions: Candida albicans
C. albicans (I) = test: Sensitivity of fungi to taurolidine, solid medium; type: cell-based; conditions: Candida albicans
C. albicans (Jones) [2] = test: Sensitivity of fungi to taurolidine, solid medium; type: cell-based; conditions: Candida albicans
C. albicans (Wilton) = test: Sensitivity of fungi to taurolidine, solid medium; type: cell-based; conditions: Candida albicans
Aspergillus fumigatus I = test: Sensitivity of fungi to taurolidine, solid medium; type: cell-based
[3] = tested on: Aspergillus fumigatus III; test: Sensitivity of fungi to taurolidine, solid medium; type: cell-based
[4] = tested on: Trichophyton mentagrophytes; test: Sensitivity of fungi to taurolidine, solid medium; type: cell-based
Epidermophyton floccosum = test: Sensitivity of fungi to taurolidine, solid medium; type: cell-based
Mucor spp. (Lane) = test: Sensitivity of fungi to taurolidine, solid medium; type: cell-based
Rhizopus spp. = test: Sensitivity of fungi to taurolidine, solid medium; type: cell-based
Sporotrichum schenkii = test: Sensitivity of fungi to taurolidine, solid medium; type: cell-based
Cryptococcus neoformans = test: Sensitivity of fungi to taurolidine, solid medium; type: cell-based
C. albicans (Has. A) [5] = test: Sensitivity of fungi to taurolidine, liquid medium; type: cell-based; conditions: Candida albicans
C. albicans (Jones) [6] = test: Sensitivity of fungi to taurolidine, liquid medium; type: cell-based; conditions: Candida albicans
C. spp. = test: Sensitivity of fungi to taurolidine, liquid medium; type: cell-based
C. tropicalis = test: Sensitivity of fungi to taurolidine, liquid medium; type: cell-based; conditions: Candida tropicalis
Mucor spp. (heavy inoc.) = test: Sensitivity of fungi to taurolidine, liquid medium; type: cell-based
Mucor spp. (light inoc.) = test: Sensitivity of fungi to taurolidine, liquid medium; type: cell-based
Aspergillus fumigatus = test: Sensitivity of fungi to taurolidine, liquid medium; type: cell-based
Trichophyton rubrum = test: Sensitivity of fungi to taurolidine, liquid medium; type: cell-based
Candida albicans = test: Antifungal activity; type: cell-based; conditions: the exception in the text summary of Table 1
bacteria = test: Antibacterial activity; type: cell-based; conditions: antifungal activity stated approximately equivalent to it
[7] = Solubility in aqueous solutions and organic solvents; type: physicochemical
[8] = pH of saturated solution in deionized water; type: physicochemical
[9] = Apparent partition coefficient between octanol and water; type: physicochemical; conditions: water buffered at pH 7.2
[10] = Stability in the solid state; type: physicochemical; conditions: stored at ambient conditions
[11] = systemic doses exceeding 40 g/day and cumulative doses up to and exceeding 300 g; cited from earlier work

SMILES: O=S1(=O)CCN(CN2CCS(=O)(=O)NC2)CN1 [Taurolidine, 4,4′-methylenebis(tetrahydro-1,2,4-thiadiazine)1,1,1′,1′,-tetraoxide]
- MIC (C. albicans (Has. A) [1]): > 5000 µg/mL
- MIC (C. albicans (I)): > 5000 µg/mL
- MIC (C. albicans (Jones) [2]): > 5000 µg/mL
- MIC (C. albicans (Wilton)): > 5000 µg/mL
- MIC (Aspergillus fumigatus I): 625 µg/mL (≈ 2200 µM)
- MIC [3]: 625 µg/mL (≈ 2200 µM)
- MIC [4]: < 300 µg/mL
- MIC (Epidermophyton floccosum): < 300 µg/mL
- MIC (Mucor spp. (Lane)): 625 µg/mL (≈ 2200 µM)
- MIC (Rhizopus spp.): 625 µg/mL (≈ 2200 µM)
- MIC (Sporotrichum schenkii): 625 µg/mL (≈ 2200 µM)
- MIC (Cryptococcus neoformans): < 300 µg/mL
- MIC (C. albicans (Has. A) [5]): 2500 µg/mL (≈ 8790 µM)
- MIC (C. albicans (Jones) [6]): 5000 µg/mL (≈ 17600 µM)
- MIC (C. spp.): 625 µg/mL (≈ 2200 µM)
- MIC (C. tropicalis): 300 µg/mL (≈ 1050 µM)
- MIC (Mucor spp. (heavy inoc.)): 625 µg/mL (≈ 2200 µM)
- MIC (Mucor spp. (light inoc.)): 625 µg/mL (≈ 2200 µM)
- MIC (Aspergillus fumigatus): 300 µg/mL (≈ 1050 µM)
- MIC (Trichophyton rubrum): 300 µg/mL (≈ 1050 µM)
- antifungal activity (Candida albicans): > 5 mg/mL
- antibacterial activity (bacteria): 0.3 to 0.6 mg/mL
- solubility ([7]; CHCl3): insoluble
- solubility ([7]; Dilute HCl): soluble
- solubility ([7]; Dilute NaOH): soluble
- solubility ([7]; EtOH): sparingly soluble
- solubility ([7]; Water, 20° C.): 1% at 20 °C
- pH of a saturated solution [8]: 7.4
- apparent partition coefficient between octanol and water [9]: approximately 0.13
- stability in the solid state [10]: acceptable stability
- safety and tolerability [11]: safe and well tolerated

From US20020103187A1, “Compositions and methods for treating superficial fungal infections” (priority 1999, published 2002)
